Source: patent US20220233661A1, “METHOD OF DETERMINING ELIGIBILITY OF CANCER PATIENT FOR PEPTIDE VACCINE THERAPY” (priority 2019, published 2022)

Key:
cancer patients = test: Test Example 4: correlation between vaccination with individual peptides (or peptide sets) and OS, Cox proportional hazards regression; type: in vivo, human; conditions: for HR: Cox proportional hazards regression, OS; for Correlation between immune responses and OS: Negative (mOS) / Correlation between immune responses and OS: Positive (mOS): Table 20, <64% neutrophil and ≥26% lymphocyte; for Correlation between immune responses and OS: Negative (mOS): vaccinated patients with negative IgG response; for Correlation between immune responses and OS: Positive (mOS): vaccinated patients with positive IgG response
Protocol: The Student's t-test and the chi-square test were used to compare quantitative and categorical variables, respectively. OS was calculated as the time in months from the date of clinical trial enrollment to death or to the date of last contact. Time-to-event endpoints were analyzed using the Kaplan-Meier method, and between-group comparison for OS was conducted using the log-rank test. Clinical efficacy of the individual peptides for OS was evaluated by univariate and multivariate analyses with the Cox proportional hazards regression model, and HR and 95% CI were calculated. All reported p-values were two-sided, and p-values less than 0.05 were considered significant. JMP version 12 or SAS version 9.4 software (SAS Institute Inc., Cary, N.C.) was used to perform all analyses.
Correlation levels of the 31 peptides for OS were evaluated by the Cox proportional hazards regression model.
Similarly, in the 2,085 advanced cancer patients (stage IV+recurrence) and the 503 non-advanced cancer patients (I-III stages) correlation levels of the 31 peptides for OS were evaluated by the Cox proportional hazards regression model. […]

[1] = tested on: anti-peptide IgG in plasma; test: Test Example 4: peptide-specific IgG titer pre and post vaccination, bead-based multiplexed Luminex assay; type: in vivo, human; conditions: for Pre-vaccination IgG Negative (number of patients) / Pre-vaccination IgG Positive (number of patients): cut off 10 FIU; for Post vaccination IgG: number of (positive) patients among vaccinated: positive IgG response; for Pre-vaccination IgG Negative patients: number of 2,588 patients below 10 FIU; for Pre-vaccination IgG Positive patients: number of 2,588 patients with ≥10 FIU; for Post vaccination IgG: (positive) patients: number of vaccinated patients with positive IgG response; for Correlation between immune responses and OS: Negative (mOS): patients with negative post-vaccination IgG response to the peptide; for Correlation between immune responses and OS: Positive (mOS): patients with positive post-vaccination IgG response to the peptide
Protocol: As described previously, IgG titer specific to the antigen peptides in plasma was measured by bead-based multiplexed Luminex assay (Luminex, Austin, Tex.) before and after vaccination, i.e., at the end of each cycle or at the end of the clinical trial (Non-Patent Literature 4). In brief, 30 mL of peripheral blood was obtained before and after vaccination. Plasma was incubated with 100 μL of peptide-coupled color-coded beads for 2 hours at 25° C. on a plate shaker. After the incubation, the resultant mixture was washed with a vacuum manifold apparatus and incubated with 100 μL of biotinylated goat anti-human IgG (gamma chain-specific; Vector Laboratories, Burlingame, Calif.) for 1 hour at 25° C. on a plate shaker. The plate was then washed, followed by addition of 100 μL of streptavidin-PE (Life Technologies) to each well, and incubation for 30 minutes at 25° C. on a plate shaker. The resultant beads were washed 4 times, followed by addition of 100 μL of Tween-PBS to each well, and detection of fluorescence intensity units (FIU) on the beads using the Luminex system. The cutoff values of anti-peptide IgG were set to 10 FIU in 100-fold diluted samples.
Pre-vaccination peptide-specific IgG titers to 31 peptides were measured using a Luminex system. As a detectable IgG level, 10 FIU was employed as the cut off level, as reported previously (Noguchi M, et al., Cancer Immunol Immunother. 2013 May; 62(5): 919-29; Sasada T, et al., Current Medicinal Chemistry. 21: 2332-2345, 2014; Kibe S, et al., Cancer Immunology Research 2014; 2(12): 1154-62).
Post-vaccination lgG titers were measured at the ends of the first cycle and the second cycle.

[2] = Table 18, all 2,588 cases, vaccinated vs non-vaccinated
[3] = Table 18, all 2,588 cases, median OS of patients under PPV containing the peptide
[4] = Table 18, all 2,588 cases, median OS of patients under PPV not containing the peptide
[5] = Table 19, 2,085 advanced cancer patients (stage IV+recurrence)
[6] = Table 19, 2,085 advanced cancer patients (stage IV+recurrence), PPV containing the peptide
[7] = Table 19, 2,085 advanced cancer patients (stage IV+recurrence), PPV not containing the peptide
[8] = Table 21, patients showing both <64% neutrophil and ≥26% lymphocyte
[9] = Table 21, patients showing both <64% neutrophil and ≥26% lymphocyte, PPV containing the peptide
[10] = Table 21, patients showing both <64% neutrophil and ≥26% lymphocyte, PPV not containing the peptide
[11] = Table 20, patients showing both <64% neutrophil and ≥26% lymphocyte
[12] = patients showing detectable levels
[13] = patients showing positive responses
[14] = 2,085 advanced cancer patients (stage IV+recurrence)

| Sequence | HR (cancer patients; [2]) | Vaccinate cases (mOS) (cancer patients; [3]) | Non-vaccinate cases (mOS) (cancer patients; [4]) | HR (cancer patients; [5]) | Vaccinate cases (mOS) (cancer patients; [6]) | Non-vaccinate cases (mOS) (cancer patients; [7]) | Correlation between immune responses and OS: Negative (mOS) (cancer patients) [months] | Correlation between immune responses and OS: Positive (mOS) (cancer patients) [months] | HR (cancer patients; [8]) | Vaccinate cases (mOS) (cancer patients; [9]) | Non-vaccinate cases (mOS) (cancer patients; [10]) | Post vaccination IgG Median (FIU) [1, 11] | Pre-vaccination IgG Median (FIU) [1, 11] [FIU] | Pre-vaccination IgG Negative (number of patients) [1, 11] | Pre-vaccination IgG Positive (number of patients) [1, 11] | Post vaccination IgG: number of (positive) patients among vaccinated [1, 11] | Pre-vaccination IgG Negative patients [1] | Pre-vaccination IgG Positive patients [1] | Post vaccination IgG: (positive) patients [1] | Pre-vaccination IgG Median (FIU) [1, 12] [FIU] | also measured |
| --- | --- | --- | --- | --- | --- | --- | --- | --- | --- | --- | --- | --- | --- | --- | --- | --- | --- | --- | --- | --- | --- |
| DYSARWNEI (listed as Homo sapiens) [SART2-93] | 0.9 | 1,137(12.3) M | 413(11.5) M | 1.0 | 906(10.7) M | 340(10.2) M | 17.3 | 24.7 | 1.0 | 467(19.0) M | 158(17.6) M | 8,633 FIU | 64 | 141 | 925 | 467(183) | 340 | 2,248 | 1137(362) | 66 | positive rate of patients showing ≥10 FIU, pre-vaccination peptide-specific IgG ([1]; 2,588 patients, pre-vaccination): 87%; Post vaccination IgG Median (FIU) [1, 13]: 3,435 FIU; Correlation between immune responses and OS: Negative (mOS) [1]: 12.3 months; Correlation between immune responses and OS: Positive (mOS) [1]: 21.7 months |
| LYCESVHNF (listed as Homo sapiens) [PAP-213] | 0.9 | 279(16.6) M | 1271(11.4) M | 0.8 | 228(14.9) M | 1018(10.0) M | 11.3 | 28.1 | 0.9 | 121(23.7) M | 504(17.9) M | 15,379 FIU | 33 | 489 | 577 | 121(94) | 1,166 | 1,422 | 279(196) | 33 | median OS of non-vaccinated cases (cancer patients; [14]): 10 months; median OS of vaccinated cases (cancer patients; [14]): 14.9 months; Post vaccination IgG Median (FIU) [1, 13]: 14,912 FIU; Correlation between immune responses and OS: Negative (mOS) [1]: 7.0 months; Correlation between immune responses and OS: Positive (mOS) [1]: 21.7 months |
| GIHKQKEKSR (listed as Homo sapiens) [PAP-248] | 1.0 | 147(11.4) M | 1,067(11.1) M | 0.8 | 124(10.1) M | 845(9.9) M | 13 | 21.3 | 1.1 | 64(15.5) M | 443(17.6) M | 1,981 FIU | 38 | 543 | 523 | 64(31) | 1,302 | 1,286 | 147(62) | 37 | median OS of patients with the peptide vs patients without it (cancer patients; 1,066 patients with <64% neutrophil and ≥26% lymphocyte): shorter; Post vaccination IgG Median (FIU) [1, 13]: 2,136 FIU; Correlation between immune responses and OS: Negative (mOS) [1]: 9.9 months; Correlation between immune responses and OS: Positive (mOS) [1]: 21.1 months |
| ILGELREKV (listed as Homo sapiens) [WHSC2-141] | 1.0 | 325(12.1) M | 725(11.1) M | 1.0 | 271(11.1) M | 591(10.1) M | 12 | 28.2 | 1.0 | 134(18.0) M | 300(16.6) M | 18,171 FIU | 38 | 261 | 805 | 134(91) | 680 | 1,908 | 325(173) | 39 | Post vaccination IgG Median (FIU) [1, 13]: 13,078 FIU; Correlation between immune responses and OS: Negative (mOS) [1]: 7.7 months; Correlation between immune responses and OS: Positive (mOS) [1]: 19.0 months |
| TFDYLRSVL (listed as Homo sapiens) [Lck-486] | 0.9 | 879(12.3) M | 671(11.3) M | 0.9 | 709(11.1) M | 537(9.6) M | 11.4 | 25.2 | 0.9 | 356(19.1) M | 269(17.6) M | 17,613 FIU | 40 | 167 | 899 | 356(274) | 404 | 2,184 | 879(573) | 42 | median OS of non-vaccinated cases (cancer patients; [14]): 9.6 months; median OS of vaccinated cases (cancer patients; [14]): 11.1 months; median OS of vaccinated cases (cancer patients; all 2,588 cases, PPV containing the peptide): 12.3 months; median OS of non-vaccinated cases (cancer patients; all 2,588 cases, PPV not containing the peptide): 11.3 months; Post vaccination IgG Median (FIU) [1, 13]: 15,147 FIU; Correlation between immune responses and OS: Negative (mOS) [1]: 7.2 months; Correlation between immune responses and OS: Positive (mOS) [1]: 19.4 months |
